Test results as given in patent US20190298717A1 (BOARD OF REGENTS, THE UNIVERSITY OF TEXAS SYSTEM, priority 2016, published 2019).

Columns and labels:
[1] = system: PC12 cells expressing EGFP-HDQ74
Experimental: Transgene expression was induced with doxycycline for 8 hours, and then switched off (by removing doxycycline). […] The fraction of EGFP-positive cells expressing aggregates under different conditions were plotted as odds ratios taking Ctrl value as 1. Error bars show 95% confidence interval. […] The fraction of EGFP-positive cells with aggregates were plotted as odds ratios taking Ctrl value as 1. Error bars show 95% confidence interval. […] Rapamycin ([…]) was used as positive control. Right panel is densitometry analysis of EGFP-HDQ74 level normalized to actin. Error bars show SD. […] The fraction of EGFP-positive cells expressing aggregates were plotted as odds ratios taking Ctrl value as 1. Error bars show 95% confidence interval.
To investigate the clearance of HDQ74 (74 repeats of poly Q), the inventors used a stable doxycycline-inducible PC12 cell line expressing EGFP-tagged HDQ74 in which transgene expression were induced by doxycycline addition to the cell media and switched off by doxycycline removal. […] Rapamycin, a known autophagy inducer, was used as positive controls.

SH-SY5Y cells [2] = experiment: Mitochondrial membrane potential (TMRE); assay type: cell-based, human; conditions: hydralazine 0, 10, 20 μM; isoniazid 20 μM
Experimental: (§1) Cells were stained by TMRE to tag active mitochondria. Florescence signal was quantified by Flow Jo software. […] ATP levels were measured by bioluminescent detection of luciferase activity. All data are presented normalized to cell number.
(§2) The mitochondrial membrane potential was measured as an indicator of cellular energetics and ATP content.

Keap1-Nrf2 = Keap1-Nrf2 (Homo sapiens, UniProt Q14145); conditions: data not shown
Keap1-Nrf2, sequence (Q14145 whole entry): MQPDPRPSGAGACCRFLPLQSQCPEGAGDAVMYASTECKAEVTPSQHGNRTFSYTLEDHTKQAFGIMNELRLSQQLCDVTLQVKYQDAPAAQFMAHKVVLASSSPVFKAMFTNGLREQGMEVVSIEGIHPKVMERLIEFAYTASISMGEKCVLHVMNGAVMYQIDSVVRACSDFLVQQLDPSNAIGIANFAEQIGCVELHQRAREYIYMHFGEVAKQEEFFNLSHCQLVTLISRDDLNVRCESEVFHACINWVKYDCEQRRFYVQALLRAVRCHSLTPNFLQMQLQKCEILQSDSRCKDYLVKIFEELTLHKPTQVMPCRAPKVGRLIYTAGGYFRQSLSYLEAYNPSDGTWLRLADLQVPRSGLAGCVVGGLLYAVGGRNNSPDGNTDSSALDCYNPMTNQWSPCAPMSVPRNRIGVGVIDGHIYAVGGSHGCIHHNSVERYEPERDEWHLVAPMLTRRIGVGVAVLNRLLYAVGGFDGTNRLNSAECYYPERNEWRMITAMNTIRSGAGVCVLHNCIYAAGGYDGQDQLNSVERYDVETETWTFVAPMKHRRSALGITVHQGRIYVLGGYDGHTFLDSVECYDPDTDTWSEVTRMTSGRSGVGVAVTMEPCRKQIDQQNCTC

GSH and GSSG = conditions: SH-SY5Y, 10 μM, 24 h
Experimental: GSH is regulated by the rate-limiting enzyme GCL consisted of GCLc and GCLm subunits. […] The inventors then used extracellular lactate dehydrogenase cytotoxicity assay to measure cell survival.
Measurement of GSH/GSSG. The intracellular GSH and GSSG content were determined using a GSH/GSSG-Glo Assay kit (Promega, Fitchburg Wis.) following the manufacturer's instructions. Briefly, after treatment, half of the cells were lysed using total lysis buffer and the other GSSG lysis buffer for 5 minutes. Luciferin generation reagents (luciferin-NT plus Glutathione-S-Transferase) were then added into each well, followed by incubation for 30 minutes. Finally, luciferin detection reagents including Ultra-Glo™ Luciferase were aliquoted into each well. After 10-minute incubation, luminescence was read in a 96-well plate reader. GSH level was calculated by subtracting GSSG level from the total, and GSH/GSSG ratio was calculated as ([Total]−[GSSG])/[GSSG].

Nrf2 pathway = conditions: SH-SY5Y, 10 μM, 24 h
Experimental: Cell culture in SILAC media and Lysate Preparation. SHY-SY5Y cells were grown in Dulbecco's modified Eagle's medium containing either unlabeled L-Proline, L-arginine (Argo) and L-lysine (Lyso) or L-Proline, heavy isotope-labeled L-arginine-^13C6^14N4(Arg^10) and L-lysine-^13C6-^15N2 (Lys^8) (Cambridge Isotope Laboratories, Inc.) supplemented with 10% dialyzed fetal bovine serum (Thermo Fischer, Waltham, Mass.). […] After treatment, cells were harvested by trypisinization, washed three times with cold PBS and lysed in a buffer containing 6M Urea, 2M Thio-urea, 1% SDS and 100 mM Tris/HCl, pH 8.0 with protease (Thermo Fischer, Waltham, Mass.) and phosphatase inhibitors. After incubation for 15 min at RT and sonication, the samples were clarified by centrifugation for 15 min at 20,000×g. Protein content was determined using the 660 nM protein assay kit (Thermo Fisher, Waltham, Mass.) according to the manufacturer's instructions.
Protein Digestion and Peptide Fractionation. […] The mix digest (300 μg) was then fractionated into six fractions via strong cation exchange (SCX). […]
Mass Spectrometry for SILAC. All the fractions were analyzed using a Q-Exactive HF mass spectrometer (Thermo Electron, Burlingame, Calif.) coupled to an Ultimate 3000 RSLCnano HPLC systems (Thermo Electron, Sunnyvale Calif.). […]

[3] = system: HEK293 overexpressing mutated tau-RD (P301L/V337M), Clone 9; conditions: 10 μM, 48 h
Experimental: Two monoclonal cell lines of HEK293 overexpressing mutated tau-RD (repetitive domain; P301L/V337M) were selected; 1) Clone 1: used as control expressing truncated tau from amino acid 244 to 372, with P301L/V337M mutations which produces soluble non-toxic tau, and 2) Clone 9: which generates an aggregated form of tau (11). Three parameters were measured: cell viability, NAD, and ATP content.

C. elegans = system: C. elegans
Experimental: The inventors also evaluated locomotion in worms to investigate the health of the rescued animals.
Locomotion Assays. To measure locomotion, worms were subjected to 30 seconds video recording on a Zeiss Axio Zoom. V16 fluorescence dissecting microscope equipped with Axiocam 503 and ZEN2 software. Bending rate (the number of body-bends-per-seconds) was measured by placing live animals on a plate containing M9 buffer, filming for 30 seconds and counting the number of bends. Healthiness of the worms was measured by their bending rate of young, middle aged and aged animals. […] The results were obtained from 3 individual trials.

SH-SY5Y cells [4] = conditions: 72 hours
Experimental: Mitochondrial mass was measured by staining the cells with Mito tracker deep red followed by flow cytometric analysis. […] DNA copy number of mitochondria was calculated by amplification of ND5 or m-RNR, as mitochondrial genes, relative to LPL as a nucleus specific DNA sequence. Relative expression values were normalized to untreated cells.
Several parameters directly linked to intact mitochondria itself, namely mitochondrial mass, mtDNA copy number (as representatives of mitochondrial biogenesis), mitochondrial membrane potential (reporter of mitochondrial function) and ATP level as a signature of energetics (FIGS. 11A to 11E) were measured. […] Isoniazid (20 μM) and resveratrol (20 μM) were used as negative and positive controls respectively). Mitochondrial mass was also evaluated in parallel by measuring the relative amount of mitochondrial to nuclear DNA. Two different set of primers (ND5 and m-RNR) were used to amplify mt-DNA in qPCR reactions (FIG. 11B).
as §2

SH-SY5Y cells [5] = conditions: 0, 10, 20 μM, 3 days
Experimental: as §1, §2

NNc1nncc2ccccc12 [Hydralazine]
poly Q aggregates (Western blot, EGFP tag) [1]: efficient removal of poly Q aggregates | EGFP-HDQ74 aggregates (confocal) ([1]; 10 μM, 48 hours): significantly reduced | clearance of Poly Q aggregates after 3-MA and bafilomycin ([1]; 5 mM 3-MA, 20 nM bafilomycin): abrogated | EGFP-HDQ74 aggregates in ATG5 knock-down cells ([1]; ATG5 shRNA): failed to clear | mitochondrial membrane potential / mitochondrial function (TMRE) (SH-SY5Y cells [2]): improves mitochondrial function in a dose dependent manner | direct binding and interruption of Keap1-Nrf2 interaction (Keap1-Nrf2): ruled out the direct binding hypothesis | GSH/GSSG ratio, higher (GSH and GSSG): 5% | intracellular GSH (GSH and GSSG): increased GSH | Nrf2 pathway activation, IPA Z score (Nrf2 pathway): 0.156 | cell viability, NAD, and ATP content of Clone 9 [3]: shows improvement in all three aspects | locomotor performance in skn-1(zu135) animals (C. elegans; 4, 8, 12 days): did not improve | locomotor performance of young (5 days), middle age (10 days), and old (15 days) N2 animals (C. elegans; N2): significant improvement | locomotor performance of pre-treated animals exposed to rotenone (C. elegans; N2, 100 μM, 50 μM rotenone 6 h): superior locomotor performance | mitochondrial mass (SH-SY5Y cells [4]; 0, 10, 20 μM): sharp increase in mitochondrial mass | increase in mt-DNA copy number (SH-SY5Y cells [4]; 20 μM): more than 50% | total ATP content (SH-SY5Y cells [5]): elevated ATP level in a concentration dependent manner
